US20100222293A1, “MODULATION OF SPERM MOTILITY” (priority 2007, published 2010)

Test system: sperm from asthenozoospermic subjects
Assay: Sperm motility parameters after incubation with extracellular ATP (automated cell motility analyzer)
Format: cell-based, human
Settings: 2.5 mM ATP, 60 minutes
Procedure: Semen samples were collected after 3 days of sexual abstinence in sterile containers. After liquefaction at room temperature for 30 minutes, standard seminal parameters were examined according to the WHO laboratory manual [supra]. For sperm movement analysis, a semen aliquot (10 μl) was placed in a Makler chamber, ten different fields per chamber were randomly examined, and at least 100 sperm for each field of the chamber were scored. Percentages of motile sperm and movement characteristics were analysed using an automated analyzer at 37° C. (CellTrack VP110, Motion Analysis Corporation, Palo Alto, Calif., USA). Sperm velocity and kinetic parameters were evaluated for only motile sperm and were expressed as mean values. Standard deviations were calculated and P values of significance were determined by the Student's t-test. The following sperm parameters were determined: curvilinear velocity (VCL) (also referred to as track speed and is the velocity (in μm/sec) of a sperm along individual tracks; straight progressive velocity (VSL) (the average velocity (in μm/sec) measured in a straight line from the beginning to the end of track); amplitude of lateral head displacement (ALH) (mean width (in μm) of sperm head oscillation); and linearity coefficient (LIN=VSL/VCL×100) (the degree (in %) of straightness of the sperm track). To analyze the effects of extracellular ATP on motility parameters of sperm from the asthenozoospermic subjects, sperm samples from the subjects were washed once by the addition of BWW medium (Biggers-Whitten-Whittingham medium; 95 mM NaCl, 4.8 mM KCl, 1.7 mM CaCl2, 1.2 mM KH2PO4, 1.2 MgSO4, 25 NaHCO3, 5.6 mM fructose, 0.25 mM sodium pyruvate, 3.7 ml/l 60% sodium lactate syrup, 10^4 IU/ml penicillin, and 10 mg/ml streptomycin) and centrifugation at 800×g for 10 minutes. After centrifugation and discarding of the supernatant, the sperm pellets were suspended in BWW medium (at a concentration of 10×10^6 sperm/ml), divided into two equivalent aliquots, and allowed to recover for 15 minutes. One aliquot was then incubated at 37° C. with ATP (2.5 mM final concentration from a 100 mM stock solution made by diluting ATP with physiological solution (0.9% NaCl in distilled water) and the second aliquot was incubated at 37° C. with same amount of physiological solution only (as a negative control). After 60 minutes incubation, sperm motility parameters were determined as described above. The effects of extracellular ATP on sperm motility parameters of sperm from subjects with asthenozoospermia after washing from seminal fluid and resuspension in BWW medium (10×10^6 sperm/ml) were examined.

Nc1ncnc2c1ncn2[C@@H]1O[C@H](COP(=O)(O)OP(=O)(O)OP(=O)(O)O)[C@@H](O)[C@H]1O [ATP, adenosine 5′-triphosphate]
effect on curvilinear velocity (VCL): No significant effects | effect on lateral sperm head displacement (ALH): No significant effects | progressive velocity (VSL) (37° C., washed sperm in BWW medium, 27 asthenozoospermic subjects, control 23.81±6.04, p=0.0024): 28.85±7.27 μm/sec | linearity (LIN) (37° C., washed sperm in BWW medium, control 29.59±6.25, p=0.0004): 37.7±7.9
